# System: PDC 899932-113-R3-J6 complex spheroid viability
# Assay: Anticancer human tumor 899932-113-R3-J6-PDC patient-derived melanoma cell line growth inhibition [RAS]
# Conditions: for IC50: curve of first compound; for viability, T/C: stronger effect = lower value
# In short: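 Tumour cells grown as complex spheroids with HUVEC endothelial cells and mesenchymal stem cells, treated with RAS pathway inhibitor combinations. Each agent spans half-log steps from near clinical Cmax, or 10 microM where Cmax is unknown.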
# [1] = second compound 0.000949 µM, first compound 0.00316 µM
# [2] = second compound 0.000949 µM, first compound 0.01 µM
# [3] = second compound 0.000949 µM, first compound 0.0316 µM
# [4] = second compound 0.000949 µM, first compound 0.1 µM
# [5] = second compound 0.000949 µM, first compound 0.316 µM
# [6] = second compound 0.000949 µM, first compound 1 µM
# [7] = second compound 0.003 µM, first compound 0.00316 µM
# [8] = second compound 0.003 µM, first compound 0.01 µM
# [9] = second compound 0.003 µM, first compound 0.0316 µM
# [10] = second compound 0.003 µM, first compound 0.1 µM
# [11] = second compound 0.003 µM, first compound 0.316 µM
# [12] = second compound 0.003 µM, first compound 1 µM
# [13] = second compound 0.00949 µM, first compound 0.00316 µM
# [14] = second compound 0.00949 µM, first compound 0.01 µM
# [15] = second compound 0.00949 µM, first compound 0.0316 µM
# [16] = second compound 0.00949 µM, first compound 0.1 µM
# [17] = second compound 0.00949 µM, first compound 0.316 µM
# [18] = second compound 0.00949 µM, first compound 1 µM
# [19] = second compound 0.03 µM, first compound 0.00316 µM
# [20] = second compound 0.03 µM, first compound 0.01 µM
# [21] = second compound 0.03 µM, first compound 0.0316 µM
# [22] = second compound 0.03 µM, first compound 0.1 µM
# [23] = second compound 0.03 µM, first compound 0.316 µM
# [24] = second compound 0.03 µM, first compound 1 µM
# [25] = second compound 0.0949 µM, first compound 0.00316 µM
# [26] = second compound 0.0949 µM, first compound 0.01 µM
# [27] = second compound 0.0949 µM, first compound 0.0316 µM
# [28] = second compound 0.0949 µM, first compound 0.1 µM
# [29] = second compound 0.0949 µM, first compound 0.316 µM
# [30] = second compound 0.0949 µM, first compound 1 µM
# [31] = second compound 0.3 µM, first compound 0.00316 µM
# [32] = second compound 0.3 µM, first compound 0.01 µM
# [33] = second compound 0.3 µM, first compound 0.0316 µM
# [34] = second compound 0.3 µM, first compound 0.1 µM
# [35] = second compound 0.3 µM, first compound 0.316 µM
# [36] = second compound 0.3 µM, first compound 1 µM
# 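Throughout, for viability, T/C: spheroids exposed to agents for seven days before readout; 100% = DMSO vehicle control wells.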
structure (smiles),measurement,setting,value
C=CC(=O)N1CCN(c2nc(OCC3CCCN3C)nc3c(F)c(-c4nc(N)cc(C)c4C(F)(F)F)c(Cl)cc23)C(C)C1 (stereo not drawn) + CCn1c(-c2cc(N3CCN(C)CC3)cnc2C(C)OC)c2c3cc(ccc31)-c1csc(n1)CC(NC(=O)C1CC1C)C(=O)N1CCCC(N1)C(=O)OCC(C)(C)C2,IC50,second compound 0.000949 µM,> 1000 nM
same,IC50,second compound 0.003 µM,< 3.16 nM
same,IC50,second compound 0.00949 µM,< 3.16 nM
same,IC50,second compound 0.03 µM,< 3.16 nM
same,IC50,second compound 0.0949 µM,< 3.16 nM
same,IC50,second compound 0.3 µM,< 3.16 nM
same,"viability, T/C",[1],73.2%
same,"viability, T/C",[2],71.3%
same,"viability, T/C",[3],75.9%
same,"viability, T/C",[4],76.8%
same,"viability, T/C",[5],74%
same,"viability, T/C",[6],78.2%
same,"viability, T/C",[7],39.8%
same,"viability, T/C",[8],35.6%
same,"viability, T/C",[9],36.5%
same,"viability, T/C",[10],37.7%
same,"viability, T/C",[11],42.3%
same,"viability, T/C",[12],34.5%
same,"viability, T/C",[13],3.88%
same,"viability, T/C",[14],4.28%
same,"viability, T/C",[15],6.59%
same,"viability, T/C",[16],5.83%
same,"viability, T/C",[17],4.76%
same,"viability, T/C",[18],5.5%
same,"viability, T/C",[19],2.75%
same,"viability, T/C",[20],2.91%
same,"viability, T/C",[21],4.47%
same,"viability, T/C",[22],2.82%
same,"viability, T/C",[23],2.96%
same,"viability, T/C",[24],2.4%
same,"viability, T/C",[25],2.13%
same,"viability, T/C",[26],2.76%
same,"viability, T/C",[27],2.86%
same,"viability, T/C",[28],1.94%
same,"viability, T/C",[29],2.58%
same,"viability, T/C",[30],2.69%
same,"viability, T/C",[31],2.09%
same,"viability, T/C",[32],2.1%
same,"viability, T/C",[33],3.32%
same,"viability, T/C",[34],3.11%
same,"viability, T/C",[35],2.88%
same,"viability, T/C",[36],2.36%
CC1(C)CCC(Nc2ncc(C(F)(F)F)c(-c3c[nH]c4c(P(C)(C)=O)c(C#N)ccc34)n2)CN1 (stereo not drawn) + CCn1c(-c2cc(N3CCN(C)CC3)cnc2C(C)OC)c2c3cc(ccc31)-c1csc(n1)CC(NC(=O)C1CC1C)C(=O)N1CCCC(N1)C(=O)OCC(C)(C)C2,IC50,second compound 0.000949 µM,3.34 nM
same,IC50,second compound 0.003 µM,< 0.949 nM
same,IC50,second compound 0.00949 µM,< 0.949 nM
same,IC50,second compound 0.03 µM,< 0.949 nM
same,IC50,second compound 0.0949 µM,< 0.949 nM
same,IC50,second compound 0.3 µM,< 0.949 nM
same,"viability, T/C","second compound 0.000949 µM, first compound 0.000949 µM",64.6%
same,"viability, T/C","second compound 0.000949 µM, first compound 0.003 µM",51.2%
same,"viability, T/C","second compound 0.000949 µM, first compound 0.00949 µM",37.5%
same,"viability, T/C","second compound 0.000949 µM, first compound 0.03 µM",26.1%
same,"viability, T/C","second compound 0.000949 µM, first compound 0.0949 µM",15.4%
same,"viability, T/C","second compound 0.000949 µM, first compound 0.3 µM",9.12%
same,"viability, T/C","second compound 0.003 µM, first compound 0.000949 µM",35%
same,"viability, T/C","second compound 0.003 µM, first compound 0.003 µM",27.6%
same,"viability, T/C","second compound 0.003 µM, first compound 0.00949 µM",21.9%
same,"viability, T/C","second compound 0.003 µM, first compound 0.03 µM",14.6%
same,"viability, T/C","second compound 0.003 µM, first compound 0.0949 µM",13.2%
same,"viability, T/C","second compound 0.003 µM, first compound 0.3 µM",7.92%
same,"viability, T/C","second compound 0.00949 µM, first compound 0.000949 µM",3.56%
same,"viability, T/C","second compound 0.00949 µM, first compound 0.003 µM",4.08%
same,"viability, T/C","second compound 0.00949 µM, first compound 0.00949 µM",4.01%
same,"viability, T/C","second compound 0.00949 µM, first compound 0.03 µM",4.17%
same,"viability, T/C","second compound 0.00949 µM, first compound 0.0949 µM",5.08%
same,"viability, T/C","second compound 0.00949 µM, first compound 0.3 µM",5.25%
same,"viability, T/C","second compound 0.03 µM, first compound 0.000949 µM",2.41%
same,"viability, T/C","second compound 0.03 µM, first compound 0.003 µM",2.78%
same,"viability, T/C","second compound 0.03 µM, first compound 0.00949 µM",2.34%
same,"viability, T/C","second compound 0.03 µM, first compound 0.03 µM",2.28%
same,"viability, T/C","second compound 0.03 µM, first compound 0.0949 µM",2.45%
same,"viability, T/C","second compound 0.03 µM, first compound 0.3 µM",2.64%
same,"viability, T/C","second compound 0.0949 µM, first compound 0.000949 µM",2.17%
same,"viability, T/C","second compound 0.0949 µM, first compound 0.003 µM",2.21%
same,"viability, T/C","second compound 0.0949 µM, first compound 0.00949 µM",2.67%
same,"viability, T/C","second compound 0.0949 µM, first compound 0.03 µM",2.13%
same,"viability, T/C","second compound 0.0949 µM, first compound 0.0949 µM",1.61%
same,"viability, T/C","second compound 0.0949 µM, first compound 0.3 µM",2.1%
same,"viability, T/C","second compound 0.3 µM, first compound 0.000949 µM",2.15%
same,"viability, T/C","second compound 0.3 µM, first compound 0.003 µM",1.93%
same,"viability, T/C","second compound 0.3 µM, first compound 0.00949 µM",1.68%
same,"viability, T/C","second compound 0.3 µM, first compound 0.03 µM",1.68%
same,"viability, T/C","second compound 0.3 µM, first compound 0.0949 µM",1.86%
same,"viability, T/C","second compound 0.3 µM, first compound 0.3 µM",1.52%
C=CC(=O)Nc1cc(Nc2nccc(-c3cn(C)c4ccccc34)n2)c(OC)cc1N(C)CCN(C)C + CCn1c(-c2cccnc2C(C)OC)c2c3cc(ccc31)N1CCOC(CC(NC(=O)C(C(C)C)N(C)C(=O)C3(F)CCN(C(=O)C#CC(C)(C)N(C)C)CC3)C(=O)N3CCCC(N3)C(=O)OCC(C)(C)C2)C1,IC50,second compound 0.000949 µM,> 1000 nM
same,IC50,second compound 0.003 µM,> 1000 nM
same,IC50,second compound 0.00949 µM,> 1000 nM
same,IC50,second compound 0.03 µM,> 1000 nM
same,IC50,second compound 0.0949 µM,> 1000 nM
same,IC50,second compound 0.3 µM,> 1000 nM
same,"viability, T/C",[1],113%
same,"viability, T/C",[2],98.3%
same,"viability, T/C",[3],101%
same,"viability, T/C",[4],106%
same,"viability, T/C",[5],115%
same,"viability, T/C",[6],102%
same,"viability, T/C",[7],104%
same,"viability, T/C",[8],116%
same,"viability, T/C",[9],107%
same,"viability, T/C",[10],104%
same,"viability, T/C",[11],112%
same,"viability, T/C",[12],99.5%
same,"viability, T/C",[13],108%
same,"viability, T/C",[14],102%
same,"viability, T/C",[15],108%
same,"viability, T/C",[16],101%
same,"viability, T/C",[17],110%
same,"viability, T/C",[18],95.1%
same,"viability, T/C",[19],104%
same,"viability, T/C",[20],102%
same,"viability, T/C",[21],101%
same,"viability, T/C",[22],112%
same,"viability, T/C",[23],112%
same,"viability, T/C",[24],100%
same,"viability, T/C",[25],102%
same,"viability, T/C",[26],99.1%
same,"viability, T/C",[27],103%
same,"viability, T/C",[28],105%
same,"viability, T/C",[29],104%
same,"viability, T/C",[30],89.8%
same,"viability, T/C",[31],96.5%
same,"viability, T/C",[32],85.5%
same,"viability, T/C",[33],96%
same,"viability, T/C",[34],92.3%
same,"viability, T/C",[35],90.9%
same,"viability, T/C",[36],85.8%
O=C(c1ccc(F)c(F)c1Nc1ccc(I)cc1F)N1CC(O)([C@@H]2CCCCN2)C1 + CCn1c(-c2cccnc2C(C)OC)c2c3cc(ccc31)N1CCOC(CC(NC(=O)C(C(C)C)N(C)C(=O)C3(F)CCN(C(=O)C#CC(C)(C)N(C)C)CC3)C(=O)N3CCCC(N3)C(=O)OCC(C)(C)C2)C1,IC50,second compound 0.000949 µM,8.14 nM
same,IC50,second compound 0.003 µM,7.67 nM
same,IC50,second compound 0.00949 µM,8.24 nM
same,IC50,second compound 0.03 µM,6.76 nM
same,IC50,second compound 0.0949 µM,6.85 nM
same,IC50,second compound 0.3 µM,4.64 nM
same,"viability, T/C",[1],72.5%
same,"viability, T/C",[2],45.1%
same,"viability, T/C",[3],4.63%
same,"viability, T/C",[4],3.49%
same,"viability, T/C",[5],1.64%
same,"viability, T/C",[6],0.82%
same,"viability, T/C",[7],72.3%
same,"viability, T/C",[8],43.3%
same,"viability, T/C",[9],4.76%
same,"viability, T/C",[10],3.09%
same,"viability, T/C",[11],1.48%
same,"viability, T/C",[12],0.53%
same,"viability, T/C",[13],72.4%
same,"viability, T/C",[14],45.5%
same,"viability, T/C",[15],5.4%
same,"viability, T/C",[16],3.03%
same,"viability, T/C",[17],1.85%
same,"viability, T/C",[18],0.35%
same,"viability, T/C",[19],71.6%
same,"viability, T/C",[20],38.9%
same,"viability, T/C",[21],5.26%
same,"viability, T/C",[22],3.43%
same,"viability, T/C",[23],1.55%
same,"viability, T/C",[24],0.48%
same,"viability, T/C",[25],73%
same,"viability, T/C",[26],38.8%
same,"viability, T/C",[27],4.74%
same,"viability, T/C",[28],2.54%
same,"viability, T/C",[29],1.48%
same,"viability, T/C",[30],0.61%
same,"viability, T/C",[31],60.2%
same,"viability, T/C",[32],29.6%
same,"viability, T/C",[33],3.92%
same,"viability, T/C",[34],2.9%
same,"viability, T/C",[35],0.95%
same,"viability, T/C",[36],0.52%

# Source: PubChem BioAssay AID2060895 (Molecular Pharmacology Branch, DTP, NCI, 2025)
